31 compounds from ChEMBL document CHEMBL1134823, “Human beta3 adrenergic receptor agonists containing cyanoguanidine and nitroethylenediamine moieties” (Bioorg Med Chem Lett, 2001) can be followed below.

Experiment [1] concerns the target T1, Beta-3 adrenergic receptor (Homo sapiens, UniProt P13945). Nature of the experiment: In vitro maximum activation of adenylyl cyclase compared to isoproterenol. The experiment is classed as functional.
Target sequence in this assay (P13945 whole entry, looked up): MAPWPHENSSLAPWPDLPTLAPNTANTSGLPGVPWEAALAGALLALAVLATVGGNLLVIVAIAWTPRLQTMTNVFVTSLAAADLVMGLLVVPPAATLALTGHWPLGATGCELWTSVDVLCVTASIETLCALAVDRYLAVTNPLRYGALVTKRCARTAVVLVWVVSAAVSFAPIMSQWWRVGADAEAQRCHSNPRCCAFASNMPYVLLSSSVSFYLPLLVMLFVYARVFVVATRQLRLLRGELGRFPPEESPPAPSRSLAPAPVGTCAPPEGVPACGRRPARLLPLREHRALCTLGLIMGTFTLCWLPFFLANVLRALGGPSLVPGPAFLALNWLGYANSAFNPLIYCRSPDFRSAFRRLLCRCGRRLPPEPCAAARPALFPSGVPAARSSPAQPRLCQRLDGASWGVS
Experiment [2] deals with T2, Beta-1 adrenergic receptor (Homo sapiens, UniProt P08588). Nature of the experiment: Percent of maximal stimulation was determined as adenylate cyclase activation using isoproterenol as standard. The experiment is classed as functional.
Target sequence in this assay (P08588 whole entry, looked up): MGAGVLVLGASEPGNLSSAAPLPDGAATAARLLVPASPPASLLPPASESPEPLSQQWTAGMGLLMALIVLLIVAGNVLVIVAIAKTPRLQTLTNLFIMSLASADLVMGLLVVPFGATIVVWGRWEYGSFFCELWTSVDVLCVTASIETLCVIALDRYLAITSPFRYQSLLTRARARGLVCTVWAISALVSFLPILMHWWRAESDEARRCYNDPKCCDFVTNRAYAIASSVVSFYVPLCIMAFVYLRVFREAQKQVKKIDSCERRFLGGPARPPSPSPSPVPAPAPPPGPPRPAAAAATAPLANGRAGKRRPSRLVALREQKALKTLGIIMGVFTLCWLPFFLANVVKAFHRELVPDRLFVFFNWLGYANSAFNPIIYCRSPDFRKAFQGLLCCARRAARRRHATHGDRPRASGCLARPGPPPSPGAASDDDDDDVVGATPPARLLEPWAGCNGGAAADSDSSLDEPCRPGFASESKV
Experiment [3] addresses T3, Beta-2 adrenergic receptor (Homo sapiens, UniProt P07550). Nature of the experiment: Percent of maximal stimulation was determined as adenylate cyclase activation using isoproterenol as standard at a concentration of 10000 nM.
Target sequence in this assay (P07550 whole entry, looked up): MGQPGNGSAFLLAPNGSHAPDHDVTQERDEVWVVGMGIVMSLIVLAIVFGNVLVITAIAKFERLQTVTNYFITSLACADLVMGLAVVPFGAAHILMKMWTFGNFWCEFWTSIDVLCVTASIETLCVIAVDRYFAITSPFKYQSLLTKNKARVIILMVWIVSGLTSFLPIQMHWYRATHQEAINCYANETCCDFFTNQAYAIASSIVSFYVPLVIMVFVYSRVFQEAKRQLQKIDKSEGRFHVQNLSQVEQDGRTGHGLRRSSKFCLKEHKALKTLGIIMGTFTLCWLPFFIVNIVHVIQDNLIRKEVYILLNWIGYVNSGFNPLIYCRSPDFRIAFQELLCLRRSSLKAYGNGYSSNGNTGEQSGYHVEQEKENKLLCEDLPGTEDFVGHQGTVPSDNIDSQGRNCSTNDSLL
In experiment [4] the target is T3, Beta-2 adrenergic receptor. Nature of the experiment: Binding affinity to the human beta-2 adrenergic receptor assayed using [125I]iodocyanopindolol as radioligand in CHO cells. The format is cell-based.
Target sequence in this assay (P07550 whole entry): as the sequence (P07550 whole entry, looked up) above
Experiment [5] addresses T1, Beta-3 adrenergic receptor. Nature of the experiment: In vitro efficacy at human beta-3 adrenergic receptor.
Target sequence in this assay (P13945 whole entry): as the sequence (P13945 whole entry, looked up) above
Experiment [6] concerns the target T2, Beta-1 adrenergic receptor. Nature of the experiment: Binding affinity for human Beta-1 adrenergic receptor using [125I]iodocyanopindolol as radioligand in CHO cells. The format is cell-based.
Target sequence in this assay (P08588 whole entry): as the sequence (P08588 whole entry, looked up) above
Experiment [7] concerns the target T2, Beta-1 adrenergic receptor. Description: (§1) Percent of maximal stimulation was determined as adenylate cyclase activation using isoproterenol as standard at a concentration of 10000 nM. The experiment is classed as functional.
Target sequence in this assay (P08588 whole entry, looked up): as above
Experiment [8] concerns the target T3, Beta-2 adrenergic receptor. The description is as §1. The experiment is classed as functional.
Target sequence in this assay (P07550 whole entry, looked up): as the sequence (P07550 whole entry, looked up) above
Experiment [9] deals with T1, Beta-3 adrenergic receptor. Description: Percent of maximal stimulation was determined as adenylate cyclase activation using isoproterenol as standard at a concentration of 1000 nM. The format is functional.
Target sequence in this assay (P13945 whole entry, looked up): as the sequence (P13945 whole entry, looked up) above
For experiment [10], the target named is T2, Beta-1 adrenergic receptor. Description: Binding affinity towards human Beta-1 adrenergic receptor.
Target sequence in this assay (P08588 whole entry): as the sequence (P08588 whole entry, looked up) above

As usually defined, the IC50 is the concentration that inhibits the measured activity by half. The low end stands for greater potency, the high end for weaker potency. As usually defined, the EC50 is the concentration that produces a half-maximal response.

In experiment [1], `CCCCCCCCc1csc(N2CCc3cc(N/C(=N/c4ccc(CCNC[C@H](O)c5cccnc5)cc4)NC#N)ccc32)n1` returned an Activation of 39%.

Turning to `N#CN/C(=N\c1ccc2c(c1)CCN2c1nc(-c2ccc(OC(F)(F)F)cc2)cs1)Nc1ccc(CCNC[C@H](O)c2cccnc2)cc1`, the Activation in [2] amounted to 73%; in experiment [1], 82%; in experiment [3], 51%.

With `NC(=O)c1cccc(N/C(=C/[N+](=O)[O-])Nc2ccc(CCNC[C@H](O)c3cccnc3)cc2)c1`, the IC50 in [4] stood at 1200 nM; in [6], 790 nM. The compound also gave an EC50 in [5] of 10 nM. Also, the Activation in [1] amounted to 101%.

Consider `N#CN/C(=N\c1cccc(Oc2ccccc2)c1)Nc1ccc(CCNC[C@H](O)c2cccnc2)cc1`, for which the half-maximal inhibitory concentration (IC50) in experiment [4] is 40 nM; in experiment [6], 240 nM. Also, in [5], the EC50 amounted to 26 nM. Moreover, the Activation in experiment [1] came out at 70%.

As to `N#CN/C(=N\c1ccc2c(c1)CCN2c1nc(-c2ccc(OC(F)(F)F)cc2)cs1)Nc1ccc2cc(CCNC[C@H](O)c3cccnc3)ccc2c1`, the figures for the Activation in [1], in experiment [7] and in [8] were 62%, 2% and 11%, respectively.

For `N#CN/C(=N\c1ccc(CCNC[C@H](O)c2cccnc2)cc1)Nc1cccc(C(N)=O)c1`, the IC50 in [4] worked out at 400 nM; in [6], 980 nM. This compound had an EC50 in experiment [5] of 150 nM. The compound also registered an Activation in experiment [1] of 76%.

With `N#CN=C(Nc1ccc2c(c1)CCN2c1nc(-c2ccc(OC(F)(F)F)cc2)cs1)Nc1ccc2cc(CCNC[C@H](O)c3cccnc3)ccc2c1`, the IC50 in [4] is 7100 nM; in [6] it was 2300 nM. This compound had an EC50 in [5] of 19 nM.

`CCCCCCCCc1csc(N2CCc3ccc(N/C(=N/c4ccc(CCNC[C@H](O)c5cccnc5)cc4)NC#N)cc32)n1`: the IC50 in [4] came out at 66 nM; in [6], 74 nM. This compound yielded an EC50 in [5] of 59 nM. The same compound had an Activation in experiment [1] of 38%.

Turning to `N#CN=C(Nc1ccc(CCNC[C@H](O)c2cccnc2)cc1)Nc1cccc(F)c1`, the IC50 in experiment [4] came to 200 nM; in experiment [6], 590 nM. Moreover, in experiment [5], the EC50 is 100 nM.

`N#CN/C(=N\c1ccc2ccccc2c1)Nc1ccc(CCNC[C@H](O)c2cccnc2)cc1` yielded an Activation in experiment [1] of 41%.

`CCCCCCCCc1csc(N2CCc3cc(S(=O)(=O)Nc4ccc(CCNC[C@H](O)c5cccnc5)cc4)ccc32)n1`: the figures for the IC50 in experiment [4] and in experiment [6] were 1300 nM and 2500 nM, respectively. Besides, the concentration giving a half-maximal response (EC50) in experiment [5] came to 0.93 nM.

In the case of `O=[N+]([O-])/C=C(\Nc1ccc(CCNC[C@H](O)c2cccnc2)cc1)Nc1cccc(I)c1`, the IC50 was 1200 nM in experiment [4] and 1100 nM in experiment [6]. For the same compound, in experiment [5], the midpoint of the response, the EC50, lay at 22 nM. Moreover, the Activation in [1] was determined as 97%.

For the compound `N#CN=C(Nc1ccc(CCNC[C@H](O)c2cccnc2)cc1)Nc1cccc2ccccc12`, the values for the IC50 in experiment [4] and in [6] were 570 nM and 480 nM, respectively. This compound also registered a concentration for a half-maximal effect (EC50) in experiment [5] of 42 nM.

As for `O=[N+]([O-])/C=C(\Nc1ccc(CCNC[C@H](O)c2cccnc2)cc1)Nc1cc(Cl)cc(Cl)c1`, the half-maximal inhibitory concentration (IC50) in experiment [4] turned out to be 5600 nM; in [6], 3800 nM. For the same compound, it took 35 nM to reach a half-maximal effect in experiment [5] (EC50). The compound also displayed an Activation in experiment [1] of 85%.

As to `N#CN/C(=N\c1cccc(F)c1)Nc1ccc(CCNC[C@H](O)c2cccnc2)cc1`, in [1], the Activation stood at 69%.

As for `O=[N+]([O-])/C=C(\Nc1ccc(CCNC[C@H](O)c2cccnc2)cc1)Nc1cccc2ccccc12`, the IC50 is 370 nM in experiment [4] and 1800 nM in experiment [6]. Further, a half-maximal response in experiment [5] (EC50) required 140 nM. Further, in experiment [1], the Activation is 79%.

`N#CN/C(=N\c1cc(Cl)cc(Cl)c1)Nc1ccc(CCNC[C@H](O)c2cccnc2)cc1`: the half-inhibitory concentration (IC50) in [4] stood at 140 nM; in experiment [6] it was 290 nM. Moreover, the EC50 in [5] was determined as 89 nM. This compound came in with an Activation in experiment [1] of 72%.

For the compound `N#CN/C(=N\c1ccc2c(c1)N(c1nc(-c3ccc(OC(F)(F)F)cc3)cs1)CC2)Nc1ccc(CCNC[C@H](O)c2cccnc2)cc1`, the IC50 in experiment [4] worked out at 710 nM; in [6] it was 620 nM. In addition, the Activation in experiment [9] was found to be 11%; in experiment [7] it was 27%; in [8], 20%.

For `N#CN=C(Nc1ccc(CCNC[C@H](O)c2cccnc2)cc1)Nc1cccc(I)c1`, the IC50 in experiment [4] was found to be 67 nM; in experiment [6], 230 nM. The midpoint of the response in experiment [5], the EC50, lay at 59 nM.

For `CCCCCCCCc1csc(N2CCc3cc(NC(=NC#N)Nc4ccc(CCNC[C@H](O)c5cccnc5)cc4)ccc32)n1`, the IC50 turned out to be 50 nM in experiment [4] and 16 nM in experiment [6]. The EC50 in experiment [5] came to 11 nM.

As for `O=[N+]([O-])/C=C(\Nc1ccc(CCNC[C@H](O)c2cccnc2)cc1)Nc1ccc2ccccc2c1`, the results for the IC50 in experiment [4] and in experiment [6] were 3400 nM and 820 nM, respectively. Further, the EC50 in experiment [5] stood at 180 nM. The compound also had an Activation in [1] of 74%.

`N#CN/C(=N\c1cccc2c1CCN2c1nc(-c2ccc(OC(F)(F)F)cc2)cs1)Nc1ccc(CCNC[C@H](O)c2cccnc2)cc1`: the half-maximal inhibitory concentration (IC50) was greater than 10000 nM in experiment [4] and 8400 nM in experiment [6]. Moreover, the EC50 in experiment [5] was found to be 57 nM. Moreover, the Activation turned out to be 72% in [1], 6% in experiment [7] and 20% in [8].

Consider `N#CN=C(Nc1ccc(CCNC[C@H](O)c2cccnc2)cc1)Nc1ccc2c(c1)CCN2c1nc(-c2ccc(OC(F)(F)F)cc2)cs1`, for which the IC50 is 180 nM in [4] and 65 nM in [6]. For the same compound, the 50% effective concentration (EC50) in experiment [10] was determined as 41 nM; in experiment [5], 13 nM.

In the case of `O=[N+]([O-])/C=C(\Nc1ccc(CCNC[C@H](O)c2cccnc2)cc1)Nc1cccc(Oc2ccccc2)c1`, the IC50 in experiment [4] came to 220 nM; in [6] it was 830 nM. For the same compound, in experiment [5], the EC50 worked out at 120 nM. The Activation in [1] is 93%.

In the case of `CCCCCCCCc1csc(N2CCc3cc(N/C(S)=N/c4ccc(CCNC[C@H](O)c5cccnc5)cc4)ccc32)n1`, the IC50 was found to be 260 nM in [4] and 110 nM in experiment [6]. This compound yielded an EC50 in experiment [5] of 5.3 nM.

With `CCCCCCCCc1csc(N2CCc3c(N/C(=N/c4ccc(CCNC[C@H](O)c5cccnc5)cc4)NC#N)cccc32)n1`, the figures for the IC50 in [4] and in [6] were 930 nM and 1200 nM, respectively. In addition, the EC50 in experiment [5] came to 13 nM. Moreover, the Activation in [1] turned out to be 62%; in [7], 11%; in experiment [8], 25%.

Regarding `N#CN/C(=N\c1cccc2ccccc12)Nc1ccc(CCNC[C@H](O)c2cccnc2)cc1`, the Activation in experiment [1] was determined as 64%.

With `N#CN/C(=N\c1ccc(I)cc1)Nc1ccc(CCNC[C@H](O)c2cccnc2)cc1`, the IC50 is 170 nM in experiment [4] and 730 nM in experiment [6]. Moreover, in experiment [5], the EC50 came to 100 nM. In experiment [1], the Activation amounted to 38%.

Turning to `N#CN=C(Nc1ccc(CCNC[C@H](O)c2cccnc2)cc1)Nc1ccc2ccccc2c1`, the IC50 came to 50 nM in [4] and 740 nM in experiment [6]. Moreover, the EC50 in experiment [5] was 130 nM.

Turning to `O=[N+]([O-])/C=C(\Nc1ccc(CCNC[C@H](O)c2cccnc2)cc1)Nc1cccc(F)c1`, the IC50 in [4] worked out at 2400 nM; in experiment [6], 3000 nM. In addition, the EC50 in experiment [5] came to 300 nM. In experiment [1], this compound showed an Activation of 79%.

For the compound `N#CN/C(=N\c1cccc(I)c1)Nc1ccc(CCNC[C@H](O)c2cccnc2)cc1`, the Activation in experiment [1] worked out at 51%.
